For 14 molecules, IC50 results are on record in patent publication US7576091B2, “Thiazolo-, oxazalo and imidazolo-quinazoline compounds capable of inhibiting protein kinases” (Cyclacel Limited, priority 2003, dated 2009).

The IC50 is the concentration that inhibits the measured activity by half. High values mean a need for much substance, low ones inhibition by little substance.

Experiment [1] deals with Cyclin T - CDK9 (Homo sapiens, UniProt P50750). In words: Cyclin T - CDK9 kinase inhibition assay. The class given is biochemical. As to conditions: [ATP] = 100 μM. The procedure: (§1) Compounds were tested in cyclin-CDK kinase assays and cytotoxicity assays against human tumour cell lines (72-h MTT assay) as previously described.
Experiment [2] deals with A549. In words: 72-h MTT cytotoxicity assay, A549. As to conditions: A549 human tumour cell line. The class given is cell-based. The procedure: as §1
In general terms: Tetrazolium assays rely on reduction of a dye to a coloured formazan, in cell work by metabolically active cells.

The target of experiment [3] is Cyclin E - CDK2 (Homo sapiens, UniProt P24941). In words: Cyclin E - CDK2 kinase inhibition assay. The class given is biochemical. As to conditions: [ATP] = 100 μM. The procedure: as §1
For experiment [4], the target named is Cyclin B - CDK1 (Homo sapiens, UniProt P06493). Briefly: Cyclin B - CDK1 kinase inhibition assay. The class given is biochemical. As to conditions: [ATP] = 100 μM. The procedure:
as §1

For experiment [5], the system named is HT29. In words: 72-h MTT cytotoxicity assay, HT29. The class given is cell-based. As to conditions: HT-29, HT29 human tumour cell line. The procedure: as §1
The target in experiment [6] is Cyclin H - CDK7 (Homo sapiens, UniProt P50613). In words: Cyclin H - CDK7 kinase inhibition assay. The class given is biochemical. As to conditions: [ATP] = 100 μM. The procedure: as §1
Experiment [7] concerns Saos-2. Briefly: 72-h MTT cytotoxicity assay, Saos-2. The class given is cell-based. As to conditions: Saos-2 human tumour cell line. The procedure:
as §1

The target in experiment [8] is Cyclin D1 - CDK4 (Homo sapiens, UniProt P11802). Briefly: Cyclin D1 - CDK4 kinase inhibition assay. The class given is biochemical. As to conditions: [ATP] = 100 μM. The procedure:
as §1

Experiment [9] has as its target Cyclin A - CDK2 (Homo sapiens, UniProt P24941). Briefly: Cyclin A - CDK2 kinase inhibition assay. The class given is biochemical. As to conditions: [ATP] = 100 μM. The procedure: as §1

Sequence of Cyclin T - CDK9 (P50750 whole entry): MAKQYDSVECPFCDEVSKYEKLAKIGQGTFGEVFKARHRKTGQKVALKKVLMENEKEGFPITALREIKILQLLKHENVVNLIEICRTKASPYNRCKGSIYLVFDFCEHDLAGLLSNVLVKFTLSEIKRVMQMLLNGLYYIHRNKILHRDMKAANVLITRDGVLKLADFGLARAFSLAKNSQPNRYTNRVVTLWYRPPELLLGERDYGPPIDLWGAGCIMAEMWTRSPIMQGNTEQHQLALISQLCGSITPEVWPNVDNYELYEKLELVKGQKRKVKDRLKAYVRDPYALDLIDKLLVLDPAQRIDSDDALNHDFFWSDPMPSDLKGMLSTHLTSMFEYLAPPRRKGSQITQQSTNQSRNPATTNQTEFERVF
Sequence of Cyclin T - CDK9 (O60563 whole entry partner): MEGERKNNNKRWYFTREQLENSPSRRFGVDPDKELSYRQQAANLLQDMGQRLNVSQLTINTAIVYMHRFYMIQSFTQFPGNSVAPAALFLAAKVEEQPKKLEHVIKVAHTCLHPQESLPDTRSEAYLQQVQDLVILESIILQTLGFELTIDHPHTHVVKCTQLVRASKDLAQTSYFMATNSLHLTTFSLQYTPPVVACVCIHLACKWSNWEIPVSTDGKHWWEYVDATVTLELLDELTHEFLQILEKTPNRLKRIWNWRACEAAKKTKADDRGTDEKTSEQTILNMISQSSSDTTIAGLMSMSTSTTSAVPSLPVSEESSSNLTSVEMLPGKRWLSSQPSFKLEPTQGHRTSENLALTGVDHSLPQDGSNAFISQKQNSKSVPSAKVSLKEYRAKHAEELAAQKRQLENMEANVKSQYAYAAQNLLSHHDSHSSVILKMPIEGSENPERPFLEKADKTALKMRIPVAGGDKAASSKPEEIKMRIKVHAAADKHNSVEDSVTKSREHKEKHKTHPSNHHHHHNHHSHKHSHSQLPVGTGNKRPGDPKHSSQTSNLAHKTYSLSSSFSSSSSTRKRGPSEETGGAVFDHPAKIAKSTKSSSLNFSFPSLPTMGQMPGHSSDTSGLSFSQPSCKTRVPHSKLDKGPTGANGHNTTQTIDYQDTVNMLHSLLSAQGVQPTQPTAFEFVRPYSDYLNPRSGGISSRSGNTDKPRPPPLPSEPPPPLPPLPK
Sequence of Cyclin B - CDK1 (P06493 whole entry): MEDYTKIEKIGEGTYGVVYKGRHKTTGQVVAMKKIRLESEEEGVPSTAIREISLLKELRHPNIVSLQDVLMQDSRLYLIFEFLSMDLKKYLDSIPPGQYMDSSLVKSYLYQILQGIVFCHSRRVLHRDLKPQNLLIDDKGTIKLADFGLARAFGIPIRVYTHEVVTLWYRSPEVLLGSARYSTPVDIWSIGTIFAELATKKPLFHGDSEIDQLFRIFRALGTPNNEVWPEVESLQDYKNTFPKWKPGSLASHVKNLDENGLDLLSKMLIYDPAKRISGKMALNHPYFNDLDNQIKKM
Sequence of Cyclin B - CDK1 (P14635 whole entry partner): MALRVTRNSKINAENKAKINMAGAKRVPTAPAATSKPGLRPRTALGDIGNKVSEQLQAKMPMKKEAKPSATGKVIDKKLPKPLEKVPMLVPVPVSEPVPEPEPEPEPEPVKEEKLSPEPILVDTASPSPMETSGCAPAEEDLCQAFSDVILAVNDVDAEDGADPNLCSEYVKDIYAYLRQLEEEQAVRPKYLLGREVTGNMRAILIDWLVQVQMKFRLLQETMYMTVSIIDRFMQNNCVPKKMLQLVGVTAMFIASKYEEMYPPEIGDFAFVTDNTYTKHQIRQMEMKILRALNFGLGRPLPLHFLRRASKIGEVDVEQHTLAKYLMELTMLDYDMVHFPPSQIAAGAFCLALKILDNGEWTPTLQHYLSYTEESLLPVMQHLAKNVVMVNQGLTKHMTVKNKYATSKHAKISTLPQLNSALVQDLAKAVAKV
Sequence of Cyclin H - CDK7 (P50613 whole entry): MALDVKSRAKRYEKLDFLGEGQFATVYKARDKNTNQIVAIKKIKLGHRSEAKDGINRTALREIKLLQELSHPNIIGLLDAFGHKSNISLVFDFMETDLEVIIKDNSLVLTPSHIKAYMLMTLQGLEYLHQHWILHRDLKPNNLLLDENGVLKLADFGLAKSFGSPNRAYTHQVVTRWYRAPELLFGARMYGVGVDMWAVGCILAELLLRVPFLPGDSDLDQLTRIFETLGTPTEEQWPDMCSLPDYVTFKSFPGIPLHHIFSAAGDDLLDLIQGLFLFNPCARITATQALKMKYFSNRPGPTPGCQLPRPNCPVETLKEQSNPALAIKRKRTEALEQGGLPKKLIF
Sequence of Cyclin H - CDK7 (P51946 whole entry partner): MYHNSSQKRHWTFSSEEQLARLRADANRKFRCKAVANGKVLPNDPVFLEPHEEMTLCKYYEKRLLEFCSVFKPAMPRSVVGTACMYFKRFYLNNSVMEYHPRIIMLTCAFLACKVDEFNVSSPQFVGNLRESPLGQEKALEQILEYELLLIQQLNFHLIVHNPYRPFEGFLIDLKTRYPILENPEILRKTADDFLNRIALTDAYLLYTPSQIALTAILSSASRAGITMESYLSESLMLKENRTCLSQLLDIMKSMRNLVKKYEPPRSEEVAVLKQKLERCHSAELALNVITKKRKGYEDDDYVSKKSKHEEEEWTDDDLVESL
Sequence of Cyclin D1 - CDK4 (P11802 whole entry): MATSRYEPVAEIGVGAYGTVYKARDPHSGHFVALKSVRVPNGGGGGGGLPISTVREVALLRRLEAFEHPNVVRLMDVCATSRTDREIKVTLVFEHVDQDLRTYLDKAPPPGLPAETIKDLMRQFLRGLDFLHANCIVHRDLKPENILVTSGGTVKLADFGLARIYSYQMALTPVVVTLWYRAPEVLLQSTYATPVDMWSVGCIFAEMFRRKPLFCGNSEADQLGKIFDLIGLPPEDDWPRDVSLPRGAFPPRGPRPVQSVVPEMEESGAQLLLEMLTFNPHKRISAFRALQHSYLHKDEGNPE
Sequence of Cyclin D1 - CDK4 (P24385 whole entry partner): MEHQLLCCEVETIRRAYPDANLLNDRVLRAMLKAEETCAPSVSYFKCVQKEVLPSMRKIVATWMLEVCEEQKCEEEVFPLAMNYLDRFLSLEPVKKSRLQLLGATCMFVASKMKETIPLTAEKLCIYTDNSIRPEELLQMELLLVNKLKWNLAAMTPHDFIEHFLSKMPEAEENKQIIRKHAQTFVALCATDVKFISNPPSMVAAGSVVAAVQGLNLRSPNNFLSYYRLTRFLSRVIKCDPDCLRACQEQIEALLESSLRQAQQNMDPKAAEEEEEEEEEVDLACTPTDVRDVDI

On to `COc1ccc(Nc2ncc3c(n2)-c2sc(C)nc2CC3)cn1` [Cpd 8, (6-Methoxy-pyridin-3-yl)-(2-methyl-4,5-dihydro-thiazolo[4,5-h]quinazolin-8-yl)-amine], for which the IC50 in [1] was found to be 3300 ± 1600 nM; in [2], 6000 ± 5100 nM; in experiment [3], 89 ± 16 nM; in [4], 230 ± 190 nM; in experiment [5] it was 4700 ± 3800 nM; in [6] it was 2300 ± 400 nM. Moreover, the IC50 stood at 5000 ± 2700 nM in experiment [7], 220 ± 190 nM in experiment [8] and 14 ± 12 nM in experiment [9].

In the case of `Cc1nc2c(s1)-c1nc(Nc3ccc(C(F)(F)F)cc3)ncc1CC2` [Cpd 2, (2-Methyl-4,5-dihydro-thiazolo[4,5-h]quinazolin-8-yl)-(4-trifluoromethyl-phenyl)-amine], the IC50 in experiment [1] was 6100 nM; in experiment [2], 2800 ± 1000 nM; in [3], 400 ± 100 nM; in [4], 2800 ± 700 nM; in [5], 7100 ± 1300 nM; in [6], more than 100000 nM. The results for the IC50 in experiment [7], in [8] and in experiment [9] were 4400 ± 1800 nM, 9200 ± 1300 nM and 4200 ± 900 nM, respectively.

With `Cc1nc2ccc3cnc(Nc4ccccc4)nc3c2s1` [Cpd 12, (2-Methyl-thiazolo[4,5-h]quinazolin-8-yl)-phenyl-amine], the IC50 is 48 ± 13 nM in experiment [3]; 5200 ± 1300 nM in experiment [4]; more than 20000 nM in experiment [6]; 5000 ± 4000 nM in experiment [8]; 4300 ± 2500 nM in experiment [9].

On to `Nc1nc2c(s1)-c1nc(Nc3cccc([N+](=O)[O-])c3)ncc1CC2` [Cpd 14, N^8-(3-Nitro-phenyl)-4,5-dihydro-thiazolo[4,5-h]quinazoline-2,8-diamine], for which the IC50 in experiment [3] was found to be 1 ± 1 nM; in experiment [4], 54 ± 16 nM; in [8] it was 250 ± 120 nM; in experiment [9] it was 22 ± 10 nM.

Consider `Cc1nc2c(s1)-c1nc(Nc3ccc(N(C)C)cc3)ncc1CC2` [Cpd 6, N,N-Dimethyl-N′-(2-methyl-4,5-dihydro-thiazolo[4,5-h]quinazolin-8-yl)-benzene-1,4-diamine], for which the IC50 in experiment [1] is 2100 ± 700 nM; in experiment [2], 8000 ± 4000 nM; in experiment [3] it was 21 ± 1 nM; in experiment [4] it was 7500 ± 6300 nM; in experiment [5] it was 3600 ± 1000 nM; in experiment [6] it was 130 ± 30 nM. The values for the IC50 in experiment [7], in experiment [8] and in [9] were 5300 ± 1900 nM, 70 ± 20 nM and 58 ± 7 nM, respectively.

Take `Cc1nc2ccc3cnc(N(C)c4cccc([N+](=O)[O-])c4)nc3c2s1` [Cpd 10, Methyl-(2-methyl-thiazolo[4,5-h]quinazolin-8-yl)-(3-nitro-phenyl)-amine]: the IC50 in experiment [1] was more than 100000 nM; in [2], more than 40000 nM; in [3] it was 3200 ± 800 nM; in experiment [4] it was 22000 ± 8000 nM; in [5], more than 40000 nM; in [6], 44000 ± 11000 nM. Further, the IC50 was more than 40000 nM in experiment [7], more than 40000 nM in experiment [8] and 47000 ± 20000 nM in experiment [9].

`Nc1nc2c(s1)-c1nc(Nc3ccccc3)ncc1CC2` [Cpd 13, N^8-Phenyl-4,5-dihydro-thiazolo[4,5-h]quinazoline-2,8-diamine]: the IC50 in [1] turned out to be 360 ± 140 nM; in [3] it was 0.7 nM; in experiment [4] it was 1900 ± 700 nM; in experiment [6], 2500 ± 1000 nM; in [8], 610 ± 90 nM; in experiment [9], 920 ± 470 nM.

For `Cc1nc2c(s1)-c1nc(Nc3cccc(O)c3)ncc1CC2` [Cpd 3, 3-(2-Methyl-4,5-dihydro-thiazolo[4,5-h]quinazolin-8-ylamino)-phenol], the IC50 in experiment [1] is 13 nM; in [2], 2500 ± 1200 nM; in [3] it was 20 ± 10 nM; in experiment [4] it was 1100 ± 400 nM; in experiment [5], 9400 ± 5600 nM; in experiment [6], 110 ± 30 nM. Besides, the IC50 in [7] was found to be 2300 ± 1800 nM; in experiment [8], 1100 ± 700 nM; in experiment [9], 2 ± 1 nM.

Turning to `Cc1nc2c(s1)-c1nc(Nc3ccccc3)ncc1CC2` [Cpd 11, (2-Methyl-4,5-dihydro-thiazolo[4,5-h]quinazolin-8-yl)-phenyl-amine], the IC50 was 1 ± 1 nM in [3]; 2200 ± 700 nM in [4]; more than 20000 nM in [6]; 1680 ± 40 nM in [8]; 1700 nM in experiment [9].

As to `Cc1nc2c(s1)-c1nc(Nc3ccc(O)cc3)ncc1CC2` [Cpd 5, 4-(2-Methyl-4,5-dihydro-thiazolo[4,5-h]quinazolin-8-ylamino)-phenol], the IC50 was determined as 1600 ± 800 nM in experiment [1]; 4200 ± 1200 nM in experiment [2]; 2 ± 1 nM in [3]; 600 ± 120 nM in experiment [4]; 9900 ± 1200 nM in experiment [5]; 640 ± 230 nM in experiment [6]. Moreover, the IC50 in experiment [7] was 6600 ± 5800 nM; in experiment [8], 1000 nM; in experiment [9], 9 ± 3 nM.

`Cc1nc2c(s1)-c1nc(Nc3ccc(N4CCOCC4)cc3)ncc1CC2` [Cpd 4, (2-Methyl-4,5-dihydro-thiazolo[4,5-h]quinazolin-8-yl)-(4-morpholin-4-yl-phenyl)-amine]: the IC50 amounted to 520 ± 60 nM in experiment [1]; 3500 ± 1400 nM in experiment [2]; 400 ± 100 nM in [3]; 45000 ± 25000 nM in experiment [4]; 2100 ± 2000 nM in experiment [5]; 2200 ± 500 nM in experiment [6]. Also, the IC50 in [7] was 5000 ± 800 nM; in experiment [8], more than 100000 nM; in experiment [9] it was 910 ± 590 nM.

For the molecule `Cc1nc2c(s1)-c1nc(Nc3cccc([N+](=O)[O-])c3)ncc1CC2` [Cpd 1, (2-Methyl-4,5-dihydro-thiazolo[4,5-h]quinazolin-8-yl)-(3-nitro-phenyl)-amine], the IC50 in [1] turned out to be 8 nM; in [2] it was 680 nM; in experiment [3], 50 ± 40 nM; in experiment [4], 1000 ± 200 nM; in experiment [5] it was 1400 ± 300 nM; in experiment [6], 1700 ± 500 nM. Further, the 50% inhibitory concentration (IC50) in experiment [7] turned out to be 1200 ± 700 nM; in experiment [8], 3800 ± 600 nM; in experiment [9] it was 560 ± 40 nM.

`Cc1nc2c(s1)-c1nc(Nc3ccc(Cl)nc3)ncc1CC2` [Cpd 7, (6-Chloro-pyridin-3-yl)-(2-methyl-4,5-dihydro-thiazolo[4,5-h]quinazolin-8-yl)-amine]: the IC50 in experiment [1] was found to be 4100 ± 1700 nM; in [2], 3300 ± 300 nM; in experiment [3], 49 ± 2 nM; in experiment [4] it was 58 ± 46 nM; in experiment [5], 4000 ± 100 nM; in [6], 2800 ± 600 nM. The figures for the IC50 in experiment [7], in experiment [8] and in experiment [9] were 4900 ± 3400 nM, 75 nM and 14 ± 6 nM, respectively.

On to `Cc1nc2c(s1)-c1nc(N(C)c3cccc([N+](=O)[O-])c3)ncc1CC2` [Cpd 9, Methyl-(2-methyl-4,5-dihydro-thiazolo[4,5-h]quinazolin-8-yl)-(3-nitro-phenyl)-amine], for which the IC50 in experiment [1] is 39000 ± 19000 nM; in experiment [2] it was more than 20000 nM; in [3] it was 1180 ± 30 nM; in experiment [4] it was 8000 ± 2000 nM; in experiment [5] it was more than 20000 nM; in [6], 3900 ± 1400 nM. Besides, the values for the IC50 in experiment [7], in experiment [8] and in experiment [9] were more than 20000 nM, more than 80000 nM and 14000 ± 6000 nM, respectively.
